Results: article PMC10290961 (European Journal of Medicinal Chemistry, 2023)

Experiments:
[1] = Stability in GSH environment; format: physicochemical; conditions: 20 mM GSH, pH 7.4 phosphate buffer, 37 °C
[2] = Transmission electron microscopy; format: physicochemical; conditions: for micelle formation (TEM): 50.0 μM, pH 7.4 phosphate buffer
[3] = for decomposition in SGF: 37 °C, within 120 min
AdV5 = format: cell-based, adenovirus (AdV) 5; conditions: A549 cells

**Q.** Which results are given for `CCCCCCCCCCCCCCSSCCCCCCOP(=O)(O)CO[C@H](CO)Cn1ccc(N)nc1=O.N` [Compound 1r, 6-(tetradecyldisulfanyl)hexyl hydrogen ((((S)-1-(4-amino-2-oxopyrimidin-1(2H)-yl)-3-hydroxypropan-2-yl)oxy)methyl)phosphonate]?
**A.** stability in GSH environment relative to 1c [1]: significant enhancement in stability; micelle formation (TEM) [2]: could form micelles

**Q.** Which “stability in GSH environment relative to 1c” value [1] does the source give for `CCCCCCCCCCCCCCSSCCCCOP(=O)(O)CO[C@H](CO)Cn1ccc(N)nc1=O.N` [Compound 1m, 4-(tetradecyldisulfanyl)butyl hydrogen ((((S)-1-(4-amino-2-oxopyrimidin-1(2H)-yl)-3-hydroxypropan-2-yl)oxy)methyl)phosphonate] here?
**A.** significant enhancement in stability

**Q.** For `CCCCCCCCSSCCCCCCOP(=O)(O)CO[C@H](CO)Cn1ccc(N)nc1=O.N` [Compound 1o, 6-(octyldisulfanyl)hexyl hydrogen ((((S)-1-(4-amino-2-oxopyrimidin-1(2H)-yl)-3-hydroxypropan-2-yl)oxy)methyl)phosphonate], which “TI (therapeutic index, CC50/IC50)” value (VACV) is on record?
**A.** >4

**Q.** Which results are given for `CCCCCCCCCCCCCCCCCCSSCCOP(=O)(O)CO[C@H](CO)Cn1ccc(N)nc1=O.N` [Compound 1e, 2-(octadecyldisulfanyl)ethyl hydrogen ((((S)-1-(4-amino-2-oxopyrimidin-1(2H)-yl)-3-hydroxypropan-2-yl)oxy)methyl)phosphonate]?
**A.** stability in GSH environment relative to 1c [1]: significant enhancement in stability; micelle formation (TEM) [2]: could form micelles; stability of micelles in GSH environment (TEM) ([2]; incubated for 4 h in GSH environment): could keep stable

**Q.** With `CCCCCCCCCCCCCCCCSSCCCCOP(=O)(O)CO[C@H](CO)Cn1ccc(N)nc1=O.N` [Compound 1n, 4-(hexadecyldisulfanyl)butyl hydrogen ((((S)-1-(4-amino-2-oxopyrimidin-1(2H)-yl)-3-hydroxypropan-2-yl)oxy)methyl)phosphonate] as the compound, how does the “micelle formation (TEM)” value [2] read?
**A.** could form micelles

**Q.** What about the “decomposition in SGF” value [3] of the same compound?
**A.** not decomposed

**Q.** What does the source list for `CCCCCCCCCCCCSSCCCCCCOP(=O)(O)CO[C@H](CO)Cn1ccc(N)nc1=O.N` [Compound 1q, 6-(dodecyldisulfanyl)hexyl hydrogen ((((S)-1-(4-amino-2-oxopyrimidin-1(2H)-yl)-3-hydroxypropan-2-yl)oxy)methyl)phosphonate]?
**A.** fold increase in TI value compared to BCV (anti-AdV5) (AdV5): 8.9 fold; decomposition in SGF [3]: not decomposed

**Q.** For `CCCCCCCCCCCCCCSSCCCOP(=O)(O)CO[C@H](CO)Cn1ccc(N)nc1=O.N` [Compound 1h, 3-(tetradecyldisulfanyl)propyl hydrogen ((((S)-1-(4-amino-2-oxopyrimidin-1(2H)-yl)-3-hydroxypropan-2-yl)oxy)methyl)phosphonate], which “stability in GSH environment relative to 1c” value [1] is on record?
**A.** significant enhancement in stability

**Q.** Which results are given for `CCCCCCCCCCCCCCCCSSCCOP(=O)(O)CO[C@H](CO)Cn1ccc(N)nc1=O.N` [Compound 1d, 2-(hexadecyldisulfanyl)ethyl hydrogen ((((S)-1-(4-amino-2-oxopyrimidin-1(2H)-yl)-3-hydroxylpropan-2-yl)oxy)methyl)phosphonate]?
**A.** stability in GSH environment relative to 1c [1]: significant enhancement in stability; micelle formation (TEM) [2]: could form micelles

**Q.** Which results are given for `CCCCCCCCCCCCCCSSCCOP(=O)(O)CO[C@H](CO)Cn1ccc(N)nc1=O.N` [Compound 1c, 2-(tetradecyldisulfanyl)ethyl hydrogen ((((S)-1-(4-amino-2-oxopyrimidin-1(2H)-yl)-3-hydroxypropan-2-yl)oxy)methyl)phosphonate]?
**A.** remaining after incubation with GSH ([1]; after 360 min): approximately 13%; micelle formation (TEM) [2]: could form micelles; fold TI relative to BCV (VACV): 2.8 fold; remaining in SGF ([3]; SGF pH 2.0, 37 °C, after 120 min): approximately 77%
